Laboratory results as given in patent US8541598B2, “Biodegradable solvents for the chemical industry” (Dublin City University, priority 2007, dated 2013).

Test system: Pseudomonas aeruginosa, Escherichia coli, Klebsiella sp., Salmonella sp., Staphylococcus aureus, Enterococcus sp., Bacillus subtilis
Experiment: Antimicrobial activity / minimum inhibitory concentrations on seven strains of bacteria
Assay type: cell-based
Conditions: for toxicity / antibacterial activity in words: seven strains of bacteria; for MIC values: seven strains, not split, range tested 0-20000 μg/ml
Method: Seven strains of bacteria were used in the assessment of the antimicrobial activity of the ILs claimed: 4 gram negative and three gram positive as shown below.
A wide concentration range was tested (0-20000 μg/ml). The concentrations screened for antibacterial activity are generally from 2 μg/ml to 1000 μg/ml (Table 6). […] The concentration range screened for the ILs containing ethers was up to 20000 μg/ml. At these high concentrations a lack of antibacterial activity is a significant result.

Substance | toxicity / antibacterial activity in words | MIC values
2,3-dimethyl-1-(2-[2-butoxy]ethoxycarbonylmethyl)imidazolium BF4 [KG71] | non-toxic | >20000 KG71 μg/ml
2,3-dimethyl-1-(2-[2-butoxy]ethoxycarbonylmethyl)imidazolium PF6 [KG32] | non-toxic | >20000 KG32 μg/ml
2,3-dimethyl-1-(2-[2-methoxyethoxy]ethoxycarbonylmethyl)imidazolium BF4 [KG72] | non-toxic | >20000 KG72 μg/ml
2,3-dimethyl-1-(2-[2-methoxyethoxy]ethoxycarbonylmethyl)imidazolium PF6 [KG33] | non-toxic | >20000 KG33 μg/ml
3-methyl-1-(2-[2-butoxy]ethoxycarbonylmethyl)imidazolium BF4 [KG65] | non-toxic | >20000 KG65 μg/ml
3-methyl-1-(2-[2-butoxy]ethoxycarbonylmethyl)imidazolium PF6 [KG26] | non-toxic | >20000 KG26 μg/ml
3-methyl-1-(2-[2-butoxyethoxy]ethoxycarbonylmethyl)imidazolium BF4 [KG69] | non-toxic | >20000 KG69 μg/ml
3-methyl-1-(2-[2-butoxyethoxy]ethoxycarbonylmethyl)imidazolium PF6 [KG30] | non-toxic | >20000 KG30 μg/ml
3-methyl-1-(2-[2-ethoxy]ethoxycarbonylmethyl)imidazolium BF4 [KG63] | non-toxic | >20000 KG63 μg/ml
3-methyl-1-(2-[2-ethoxy]ethoxycarbonylmethyl)imidazolium PF6 [KG24] | non-toxic | >20000 KG24 μg/ml
3-methyl-1-(2-[2-ethoxyethoxy]ethoxycarbonylmethyl)imidazolium BF4 [KG67] | non-toxic | >20000 KG67 μg/ml
3-methyl-1-(2-[2-ethoxyethoxy]ethoxycarbonylmethyl)imidazolium PF6 [KG28] | non-toxic | >20000 KG28 μg/ml
3-methyl-1-(2-[2-methoxy]ethoxycarbonylmethyl)imidazolium BF4 [KG62] | non-toxic | >20000 KG62 μg/ml
3-methyl-1-(2-[2-methoxy]ethoxycarbonylmethyl)imidazolium PF6 [KG23] | non-toxic | >20000 KG23 μg/ml
3-methyl-1-(2-[2-methoxy]ethoxycarbonylmethyl)imidazolium bromide [KG7] | non-toxic | >20000 KG7 μg/ml
3-methyl-1-(2-[2-methoxyethoxy]ethoxycarbonylmethyl)imidazolium BF4 [KG66] | non-toxic | >20000 KG66 μg/ml
3-methyl-1-(2-[2-methoxyethoxy]ethoxycarbonylmethyl)imidazolium PF6 [KG27] | non-toxic | 2500 KG27 μg/ml
3-methyl-1-(2-[2-propoxy]ethoxycarbonylmethyl)imidazolium BF4 [KG64] | non-toxic | >20000 KG64 μg/ml
3-methyl-1-(2-[2-propoxy]ethoxycarbonylmethyl)imidazolium PF6 [KG25] | non-toxic | >20000 KG25 μg/ml
3-methyl-1-(2-[2-propoxyethoxy]ethoxycarbonylmethyl)imidazolium BF4 [KG68] | non-toxic | >20000 KG68 μg/ml
3-methyl-1-(2-[2-propoxyethoxy]ethoxycarbonylmethyl)imidazolium PF6 [KG29] | non-toxic | >20000 KG29 μg/ml
